Measurements taken from patent US20220267753A1, “RATIONAL THERAPEUTIC TARGETING OF ONCOGENIC IMMUNE SIGNALING STATES IN MYELOID MALIGNANCIES VIA THE UBIQUITIN CONJUGATING ENZYME UBE2N” (CHILDREN'S HOSPITAL MEDICAL CENTER, priority 2019, published 2022).

Assays:
MOLM-13 cells [1] = assay: Ubiquitin-enrichment screen by mass spectrometry; assay type: cell-based, human; settings: 2 μM
Protocol: Details of the ubiquitin-enrichment screen are described herein. Briefly, MOLM-13 cells were treated for 24 hr. with 2 μM of UC-764864. Ubiquitin-related peptide enrichment was performed by using ubiquitin remnant motif (K-ε-GG) antibody-conjugated beads (Cell Signaling Technology, Danvers, Mass.) following the manufacturer's instructions. Tryptic peptides were loaded onto the beads, and then ubiquitin-conjugated peptides were eluted from the bead. Nanoliquid chromatography coupled to electrospray tandem mass spectrometry (nanoLC-ESI-MS/MS) analyses were performed on a TripleTof 5600+ mass spectrometer (Sciex; Concord, Ontario, Canada) coupled with a nanoLC-ultra nanoflow system (Eksigent; Dublin, Calif.) in data dependent acquisition (DDA) or data independent acquisition (DIA) modes for Sequential Window Acquisition of all Theoretical mass spectra (SWATH-MS) analysis.
MOLM-13 cells were treated for 24 hours with 2 μM of UC-764864. […] To reduce redundant peptide sequencing, former MS/MS-analyzed candidate ions were excluded after its first occurrence for 12 s. The DDA data was recorded using Analyst-1T (v.1.7) software. […]

MOLM-13 cells [2] = assay: MOLM-13 xenograft in NSG mice; assay type: in vivo; settings: 2 mg/kg i.p.
Protocol: Lentivirally-infected MOLM-13 cells or HL-60 cells (1.9×10^4 cells per recipient) expressing a non-silencing control shRNA or UBE2N specific shRNAs were tail vein transplanted into sublethally irradiated NOD-scid IL2Rγ^−/− (NSG) mice (250 rads whole body irradiation). Moribund mice were sacrificed and assessed for leukemic burden measurements. BM and spleen cells were analyzed for GFP expression by flow cytometry using a BD FACS Canto System (BD Biosciences, San Jose, Calif.). Bone marrow aspirates were taken 2 weeks after transplantation for smears or to assess engraftment by flow cytometry. For survival analysis after UBE2N inhibitors treatment, NSG mice (n=10/group) were injected with 1×10^4 MOLM-13 cells and treated with 4 doses of 2 mg/kg/d of UC-764865, or vehicle control (0.2% tween 20 in water) for 2 weeks (8 doses total). Time of death was recorded, and Kaplan Meier survival analysis was performed using GraphPad Prism version 7.00 for Mac (GraphPad Software, La Jolla Calif. USA). Engraftment was assessed in bone marrow (BM) at one week after transplantation by flow cytometric determination of human CD33 (BDPharmingen 555450, Franklin Lakes, N.J.), human CD45 and/or human CD15. Briefly, mice were euthanized with carbon dioxide following the AVMA Guidelines for the Euthanasia of Animals and BM cells were immediately extracted by breaking the femurs with a mortar and pestle. Red blood cells were lysed with RBC lysis buffer (555899 BD Biosciences) and washed twice with Phosphate-Buffered Saline (PBS) (Dulbecco's 45000-446 (PK)), 2% Fetal Bovine Serum (FBS). 1×10^6 cells were stained with human CD33 (BDPharmighen 555450), murine CD45 (BDPharmighen 557659) by incubating in PBS, 0.2% FBS for 30 minutes on ice in the dark. After staining the cells were washed once with PBS and resuspended in incubation buffer with propidium iodine. Cells were analyzed using a BD FACS Canto System (BD Biosciences, San Jose, Calif.). Alternatively, 1×10^4 MOLM-13 cells were xenotransplanted in NSG mice without conditioning (n=10/group). Treatment with UBE2N inhibitors was started one day after transplant for […] (5 days dosing of 2 mg/kg/d, resting 2 days, 2 days dosing of 2 mg/kg/d) by intraperitoneal injections (IP). All the mice were sacrificed at day 10 post transplantation and engraftment of MOLM-13 cells was analyzed in spleen and BM by staining for human CD15 (BDPharmighen 551376) as described above. For patient-derived xenografts (PDX), 1×106 to 6×10^6 cells were transplanted via tail vain in NSGS mice conditioned with busulfan (final dose of 30 mg/kg) 24 hours prior to transplantation. Treatment with UC-764865 was started 3 days after transplantation with 5 weekly doses of 25 mg/kg UC-764865 or vehicle control (methyl-β-cyclodextrin, 50 mg/ml) via LP during a period of 2-6 weeks. BM aspirates were performed once a week and determination of engraftment was performed as described above.

Structure (SMILES) | ubiquitination levels of other Ub-conjugating enzymes (MOLM-13 cells [1]; MOLM-13) | ubiquitination of UBE2N at Lys-92 (MOLM-13 cells [1]; MOLM-13, P<0.01) | onset of leukemia (MOLM-13 cells [2]; 4 doses/week for 2 weeks, vehicle 8 days) [days] | overall median survival (MOLM-13 cells [2]; 4 doses/week for 2 weeks, vehicle 17 days, P<0.0001) [days] | reduction of leukemic burden (percent of human CD15+ cells) in BM (MOLM-13 cells [2]; 7 doses, day 10 post transplantation, P=0.03) [%] | reduction of leukemic burden (percent of human CD15+ cells) in spleen (MOLM-13 cells [2]; 7 doses, day 10 post transplantation, P=0.3) [%] | spleen weight at time of death (MOLM-13 cells [2]; vehicle 63±29 mg, P=0.0001) [mg] | reduction of splenomegaly at time of death (MOLM-13 cells [2]; vs vehicle) [%]
CCc1ccc(C(=O)C=CSc2nc3ccc(C)cc3[nH]2)cc1 [UC-764864, 1-(4-ethylphenyl)-3-[(6-methyl-1H-benzimidazol-2-yl)sulfanyl]prop-2-en-1-one] | did not significantly alter | significantly reduced |  |  |  |  |  | 
COc1ccc(C(=O)C=CSc2nc3ccc(C)cc3[nH]2)cc1 [UC-764865, 1-(4-methoxyphenyl)-3-[(6-methyl-1H-benzimidazol-2-yl)sulfanyl]prop-2-en-1-one] |  |  | 18 | 21 | 40 | 70 | 18 ± 6 | 80
